The text below walks through data of patent US10202378B2, “Therapeutic compounds and uses thereof” (GENENTECH, INC., priority 2015, dated 2019).

One test deals with TAF1-BD2 (Homo sapiens, UniProt P21675). The test can be described thus: TAF1-BD2 TR-FRET Binding Assay. The conditions noted are these: read-out: TAF1-BD2 HTRF IC50. As to the method:
IC50 Measurements for Inhibitors Using TAF1-BD2 TR-FRET Binding Assay
His/Flag epitope tagged TAF1-BD21504-1635 was cloned, expressed, and purified to homogeneity. TAF1-BD2 binding and inhibition was assessed by monitoring the engagement of a biotinylated small molecule compound 1000 with the target using the TR-FRET assay technology (Perkin-Elmer). Specifically, in a 384 well ProxiPlate, TAF1-BD2 (0.012 uM final) in 50 mM HEPES (pH 7.5; final), 50 mM NaCl (final), 1 mM TCEP (final), 0.1 mg/mL BSA (final), and 0.069 mM Brij-35 (final) was added either in the presence of DMSO (final 0.2% DMSO) or compound dilution series in DMSO. After a 10 minute incubation at room temperature, biotin-ligand (0.04 uM final) was added. After 10 minutes incubation at room temperature, a mixture Eu-W1024 Anti-6×His antibody (Perkin Elmer AD0110) and SureLight™ Streptavidin-Allophycocyanin (SA-APC, Perkin Elmer CR130-100) were added to a final concentration of 0.2 nM antibody and 0.025 uM SA-APC, respectively. After forty minutes of equilibration at room temperature, the plates were read on an Envision instrument and IC50s calculated using a four parameter logistic model (XLFIT).

Another test concerns the target TAF1-BD1 (Homo sapiens, UniProt P21675). Nature of the test: TAF1-BD1 TR-FRET Binding Assay. The conditions noted are these: read-out: TAF1-BD1 HTRF IC50. On the procedure: IC50 Measurements for Inhibitors Using TAF1-BD1 TR-FRET Binding Assay
His/Flag epitope tagged TAF1-BD11381-1497 was cloned, expressed, and purified to homogeneity. TAF1-BD binding and inhibition was assessed by monitoring the engagement of a biotinylated small molecule compound 1000 with the target using the TR-FRET assay technology (Perkin-Elmer). Specifically, in a 384 well ProxiPlate, TAF1-BDI (0.08 uM final) in 50 mM HEPES (pH 7.5; final), 50 mM NaCl (final), 1 mM TCEP (final), 0.1 mg/mL BSA (final), and 0.069 mM Brij-35 (final) was added either in the presence of DMSO (final 0.2% DMSO) or compound dilution series in DMSO. After a 10 minute incubation at room temperature, biotin-ligand (0.08 uM final) was added. After 10 minutes incubation at room temperature, a mixture Eu-W1024 Anti-6×His antibody (Perkin Elmer ADO 110) and SureLight™ Streptavidin-Allophycocyanin (SA-APC, Perkin Elmer CR130-100) were added to final concentrations of 0.2 nM antibody and 0.05 uM SA-APC, respectively. After forty minutes of equilibration at room temperature, the plates were read on an Envision instrument and IC50s calculated using a four parameter logistic model (XLFIT).

SMILES strings stand for the structures.

In the case of `CCOC(=O)c1c(C)[nH]c2c(=O)n(C)cc(C#C[C@@](C)(O)c3nnc(C)o3)c12` [Example 64, ethyl 4-[(3R)-3-hydroxy-3-(5-methyl-1,3,4-oxadiazol-2-yl)but-1-ynyl]-2,6-dimethyl-7-oxo-1H-pyrrolo[2,3-c]pyridine-3-carboxylate], the values for the IC50 at TAF1-BD2 and at TAF1-BD1 were 160 nM and 502 nM, respectively.

On to `Cc1[nH]c2c(=O)n(C)cc(C#CC(C)(O)C3CC3)c2c1-c1nnc(CC(C)C)o1` (stereo not shown) [Example 179, 4-(3-cyclopropyl-3-hydroxy-but-1-ynyl)-3-(5-isobutyl-1,3,4-oxadiazol-2-yl)-2,6-dimethyl-1H-pyrrolo[2,3-c]pyridin-7-one], for which the IC50 turned out to be 29.2 nM on TAF1-BD2 and 137 nM on TAF1-BD1.

On to `CCOC(=O)c1c(C)[nH]c2c(=O)n(C)cc(C#CC3(O)CCCC3)c12` [Example 20, ethyl 4-[2-(1-hydroxycyclopentyl)ethynyl]-2,6-dimethyl-7-oxo-1H-pyrrolo[2,3-c]pyridine-3-carboxylate], for which the IC50 worked out at 21.9 nM on TAF1-BD2 and 282 nM at TAF1-BD1.

On to `CCOC(=O)c1c(C)[nH]c2c(=O)n(C)cc(C#CC(C)(C)C(N)=O)c12` [Example 37, ethyl 4-(4-amino-3,3-dimethyl-4-oxo-but-1-ynyl)-2,6-dimethyl-7-oxo-1H-pyrrolo[2,3-c]pyridine-3-carboxylate], for which the IC50 on TAF1-BD2 is 221 nM; on TAF1-BD1, 382 nM.

Consider `CCOC(=O)c1c(C)[nH]c2c(=O)n(C)cc(C#CC3(O)CCc4cccnc43)c12` (single isomer, unassigned) [Example 99a, ethyl 4-[2-(7-hydroxy-5,6-dihydrocyclopenta[b]pyridin-7-yl)ethynyl]-2,6-dimethyl-7-oxo-1H-pyrrolo[2,3-c]pyridine-3-carboxylate], for which the IC50 at TAF1-BD2 amounted to 1180 nM; at TAF1-BD1 it was 2930 nM.

`Cc1[nH]c2c(=O)n(C)cc(C#CC(C)(C)O)c2c1C(=O)OCC1CCCC1` [Example 148, cyclopentylmethyl 4-(3-hydroxy-3-methyl-but-1-ynyl)-2,6-dimethyl-7-oxo-1H-pyrrolo[2,3-c]pyridine-3-carboxylate]: the values for the IC50 at TAF1-BD2 and at TAF1-BD1 were 23.7 nM and 96.8 nM, respectively.

For `CCOC(=O)c1c(C)[nH]c2c(=O)n(C)cc(C#CC3(O)CCOCC3)c12` [Example 88, ethyl 4-[2-(4-hydroxytetrahydropyran-4-yl)ethynyl]-2,6-dimethyl-7-oxo-1H-pyrrolo[2,3-c]pyridine-3-carboxylate], the IC50 turned out to be 98.6 nM at TAF1-BD2 and 1110 nM on TAF1-BD1.

For `Cc1[nH]c2c(=O)n(C)cc(C#CC(C)(C)O)c2c1C(=O)OCc1ccccc1F` [Example 119, (2-fluorophenyl)methyl 4-(3-hydroxy-3-methyl-but-1-ynyl)-2,6-dimethyl-7-oxo-1H-pyrrolo[2,3-c]pyridine-3-carboxylate], the IC50 on TAF1-BD2 came out at 26.7 nM; on TAF1-BD1, 145 nM.

With `CC(=O)c1c(C)n(C)c2c(=O)[nH]cc(C#CC(C)(C)O)c12` [Example 199b, 3-acetyl-4-(3-hydroxy-3-methyl-but-1-ynyl)-1,2-dimethyl-6H-pyrrolo[2,3-c]pyridin-7-one], the IC50 at TAF1-BD2 and at TAF1-BD1 was 20000 nM each time.

Take `Cc1[nH]c2c(=O)n(C)cc(C#CC(C)(O)C3CC3)c2c1-c1nnc(C(C)(C)C)o1` (single isomer, unassigned) [Example 98a, 3-(5-tert-butyl-1,3,4-oxadiazol-2-yl)-4-(3-cyclopropyl-3-hydroxy-but-1-ynyl)-2,6-dimethyl-1H-pyrrolo[2,3-c]pyridin-7-one]: the values for the IC50 at TAF1-BD2 and on TAF1-BD1 were 227 nM and 728 nM, respectively.

Take `CCOC(=O)c1c(C)[nH]c2c(=O)n(C)cc(C#CC(O)(c3cccc(C(N)=O)c3)C(F)(F)F)c12` (stereo not shown) [Example 197, ethyl 4-[3-(3-carbamoylphenyl)-4,4,4-trifluoro-3-hydroxy-but-1-ynyl]-2,6-dimethyl-7-oxo-1H-pyrrolo[2,3-c]pyridine-3-carboxylate]: the IC50 was determined as 34.1 nM on TAF1-BD2 and 185 nM at TAF1-BD1.

As to `Cc1cccc(COC(=O)c2c(C)[nH]c3c(=O)n(C)cc(C#CC(C)(C)O)c23)c1` [Example 118, m-tolylmethyl 4-(3-hydroxy-3-methyl-but-1-ynyl)-2,6-dimethyl-7-oxo-1H-pyrrolo[2,3-c]pyridine-3-carboxylate], the IC50 was determined as 38.9 nM at TAF1-BD2 and 167 nM at TAF1-BD1.

For the molecule `CCOC(=O)c1c(C)[nH]c2c(=O)n(C)cc(C#CC(C)(C)C(=O)N(C)C)c12` [Example 36, ethyl 4-[4-(dimethylamino)-3,3-dimethyl-4-oxo-but-1-ynyl]-2,6-dimethyl-7-oxo-1H-pyrrolo[2,3-c]pyridine-3-carboxylate], the IC50 on TAF1-BD2 turned out to be 375 nM; on TAF1-BD1, 1310 nM.

For `Cc1[nH]c2c(=O)n(C)cc(C#CC(C)(O)c3ccccc3)c2c1C(=O)OC(C)(C)C` (stereo not shown) [Example 162, tert-butyl 4-(3-hydroxy-3-phenyl-but-1-ynyl)-2,6-dimethyl-7-oxo-1H-pyrrolo[2,3-c]pyridine-3-carboxylate], the IC50 on TAF1-BD2 amounted to 54.4 nM; on TAF1-BD1 it was 318 nM.

For the molecule `CCOC(=O)c1c(C)[nH]c2c(=O)n(C)cc(C#CC(O)(c3ccccc3)C(F)F)c12` (single isomer, unassigned) [Example 93a, ethyl 4-(4,4-difluoro-3-hydroxy-3-phenyl-but-1-ynyl)-2,6-dimethyl-7-oxo-1H-pyrrolo[2,3-c]pyridine-3-carboxylate], the values for the concentration for half-maximal inhibition (IC50) at TAF1-BD2 and on TAF1-BD1 were 65.5 nM and 599 nM, respectively.

For `CCOC(=O)c1c(C)[nH]c2c(=O)n(C)cc(C#CC(O)(c3cccc(Oc4ccccc4)c3)C(F)(F)F)c12` (stereo not shown) [Example 90, ethyl 2,6-dimethyl-7-oxo-4-[4,4,4-trifluoro-3-hydroxy-3-(3-phenoxyphenyl)but-1-ynyl]-1H-pyrrolo[2,3-c]pyridine-3-carboxylate], the IC50 was found to be 699 nM on TAF1-BD2 and 2280 nM on TAF1-BD1.

Regarding `Cc1[nH]c2c(=O)n(C)cc(C#CC(C)(C)O)c2c1C(=O)OCc1ccccc1C(F)(F)F` [Example 116, [2-(trifluoromethyl)phenyl]methyl 4-(3-hydroxy-3-methyl-but-1-ynyl)-2,6-dimethyl-7-oxo-1H-pyrrolo[2,3-c]pyridine-3-carboxylate], the values for the IC50 on TAF1-BD2 and on TAF1-BD1 were 27.7 nM and 105 nM, respectively.

Take `Cc1[nH]c2c(=O)n(C)cc(C#CC(C)(O)C3CC3)c2c1-c1nnc(C(C)(C)C)o1` (stereo not shown) [Example 187, 3-(5-tert-butyl-1,3,4-oxadiazol-2-yl)-4-(3-cyclopropyl-3-hydroxy-but-1-ynyl)-2,6-dimethyl-1H-pyrrolo[2,3-c]pyridin-7-one]: the results for the IC50 at TAF1-BD2 and on TAF1-BD1 were 58 nM and 216 nM, respectively.

As for `CCOC(=O)c1c(C)[nH]c2c(=O)n(C)cc(C#CC(O)(c3ccn(C)n3)C(F)(F)F)c12` (stereo not shown) [Example 42, ethyl 2,6-dimethyl-7-oxo-4-[4,4,4-trifluoro-3-hydroxy-3-(1-methylpyrazol-3-yl)but-1-ynyl]-1H-pyrrolo[2,3-c]pyridine-3-carboxylate], the IC50 on TAF1-BD2 was found to be 96.9 nM; on TAF1-BD1, 657 nM.

With `CCOC(=O)c1c(C)[nH]c2c(=O)n(C)cc(C#Cc3cccc(N)c3)c12` [Example 60, ethyl 4-[2-(3-aminophenyl)ethynyl]-2,6-dimethyl-7-oxo-1H-pyrrolo[2,3-c]pyridine-3-carboxylate], the figures for the IC50 at TAF1-BD2 and at TAF1-BD1 were 38.1 nM and 120 nM, respectively.

On to `C=CCCn1cc(C#C[C@@](C)(O)c2cc(C)on2)c2c(C(=O)OCc3ccccc3C)c(C)[nH]c2c1=O` [Example 123, o-tolylmethyl 6-but-3-enyl-4-[(3R)-3-hydroxy-3-(5-methylisoxazol-3-yl)but-1-ynyl]-2-methyl-7-oxo-1H-pyrrolo[2,3-c]pyridine-3-carboxylate], for which the IC50 at TAF1-BD2 was 243 nM; on TAF1-BD1 it was over 20000 nM.

Regarding `CCCCC(C)(C)OC(=O)c1c(C)[nH]c2c(=O)n(C)cc(C#CC(C)(O)C3CC3)c12` (stereo not shown) [Example 137, 1,1-dimethylpentyl 4-(3-cyclopropyl-3-hydroxy-but-1-ynyl)-2,6-dimethyl-7-oxo-1H-pyrrolo[2,3-c]pyridine-3-carboxylate], the figures for the IC50 on TAF1-BD2 and on TAF1-BD1 were 79 nM and 481 nM, respectively.

For `CCOC(=O)c1c(C)[nH]c2c(=O)n(C)cc(C#CC(C)(O)C(C)C)c12` (stereo not shown) [Example 70, ethyl 4-(3-hydroxy-3,4-dimethyl-pent-1-ynyl)-2,6-dimethyl-7-oxo-1H-pyrrolo[2,3-c]pyridine-3-carboxylate], the IC50 was found to be 82.3 nM at TAF1-BD2 and 515 nM at TAF1-BD1.
